In patent US10676477B2, “Factor XIa macrocycle inhibitors bearing a non-aromatic P2' group” (BRISTOL-MYERS SQUIBB COMPANY, priority 2015, dated 2020):
Where two headings read alike, the source gives them in different places.

Columns and labels:
[1] = rcm bond, DCE, 50.0 °C
[2] = biological target: T1, human Factor XIa (Homo sapiens, UniProt P03951); assay: Factor XIa enzyme inhibition assay (chromogenic substrate S-2366), Ki; format: biochemical; conditions: purified human Factor XIa, substrate S-2366, pH 7.4
T1 construct: purchased Haematologic Technologies
Protocol: (§1) The effectiveness of compounds of the present invention as inhibitors of the coagulation Factors XIa, VIIa, IXa, Xa, XIIa, plasma kallikrein chymotrypsin, trypsin, or thrombin, can be determined using a relevant purified serine protease, respectively, and an appropriate synthetic substrate. The rate of hydrolysis of the chromogenic or fluorogenic substrate by the relevant serine protease was measured both in the absence and presence of compounds of the present invention. […] A decrease in the rate of absorbance or fluorescence change in the presence of inhibitor is indicative of enzyme inhibition. Such methods are known to one skilled in the art. The results of this assay are expressed as the inhibitory constant, Ki.
Factor XIa determinations were made in 50 mM HEPES buffer at pH 7.4 containing 145 mM NaCl, 5 mM KCl, and 0.1% PEG 8000 (polyethylene glycol; JT Baker or Fisher Scientific). Determinations were made using purified human Factor XIa at a final concentration of 25-200 pM (Haematologic Technologies) and the synthetic substrate S-2366 (pyroGlu-Pro-Arg-pNA; CHROMOGENIX® or AnaSpec) at a concentration of 0.0002-0.001 M.
(§2) The Michaelis constant, Km, for substrate hydrolysis by each protease, was determined at 25° C. or 37° C. in the absence of inhibitor. Values of Ki were determined by allowing the protease to react with the substrate in the presence of the inhibitor. Reactions were allowed to go for periods of 20-180 minutes (depending on the protease) and the velocities (rate of absorbance or fluorescence change versus time) were measured. The following relationships were used to calculate Ki values: (Vmax*S)/(Km+S) (vo−vs)/vs=I/(Ki*(1+S/Km)) for a competitive inhibitor with one binding site; or vs/vo=A+((B−A)/(1+(IC50/(I)^n)); and Ki=IC50/(1+S/Km) for a competitive inhibitor where: […]

[3] = biological target: T2, human plasma kallikrein (Homo sapiens, UniProt P03952); assay: Plasma kallikrein enzyme inhibition assay (chromogenic substrate S-2302), Ki; format: biochemical; conditions: purified human plasma kallikrein, substrate S-2302, pH 7.5
T2 construct: purchased Enzyme Research Laboratories
Protocol: as §1
Plasma kallikrein determinations were made in 0.1 M sodium phosphate buffer at a pH of 7.5 containing 0.1-0.2 M sodium chloride and 0.5% PEG 8000. Determinations were made using purified human plasma kallikrein (Enzyme Research Laboratories) at a final assay concentration of 200 pM and the synthetic substrate S-2302 (H-(D)-Pro-Phe-Arg-pNA; CHROMOGENIX®) at a concentration of 0.00008-0.0004 M.
as §2

T1 sequence (P03951 388-625 limits assumed): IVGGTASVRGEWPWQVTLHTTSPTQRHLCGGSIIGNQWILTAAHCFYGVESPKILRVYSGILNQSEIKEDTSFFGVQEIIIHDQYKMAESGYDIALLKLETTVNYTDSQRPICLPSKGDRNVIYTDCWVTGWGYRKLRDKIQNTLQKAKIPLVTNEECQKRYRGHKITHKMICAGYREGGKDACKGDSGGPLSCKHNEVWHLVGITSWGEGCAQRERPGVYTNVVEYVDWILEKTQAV
T1 sequence (P03951 19-387 partner limits assumed): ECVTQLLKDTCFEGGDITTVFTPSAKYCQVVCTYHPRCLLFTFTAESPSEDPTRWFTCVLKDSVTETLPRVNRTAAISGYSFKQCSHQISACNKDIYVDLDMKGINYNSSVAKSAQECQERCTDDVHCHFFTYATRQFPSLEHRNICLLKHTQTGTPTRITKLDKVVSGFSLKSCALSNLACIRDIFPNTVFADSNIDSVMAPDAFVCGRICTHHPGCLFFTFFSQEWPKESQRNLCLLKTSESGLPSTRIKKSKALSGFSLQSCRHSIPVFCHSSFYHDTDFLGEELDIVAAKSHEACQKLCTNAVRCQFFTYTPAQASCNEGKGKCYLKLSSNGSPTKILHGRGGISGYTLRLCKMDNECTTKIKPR
T2 sequence (P03952 391-638 limits assumed): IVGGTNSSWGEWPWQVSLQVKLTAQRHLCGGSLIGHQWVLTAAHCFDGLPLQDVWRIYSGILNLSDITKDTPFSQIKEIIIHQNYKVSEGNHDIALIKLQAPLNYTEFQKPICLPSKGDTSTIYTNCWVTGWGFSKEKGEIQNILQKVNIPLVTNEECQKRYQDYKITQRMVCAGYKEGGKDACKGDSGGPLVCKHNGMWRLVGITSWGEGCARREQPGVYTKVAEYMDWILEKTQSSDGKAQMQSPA
T2 sequence (P03952 20-390 partner limits assumed): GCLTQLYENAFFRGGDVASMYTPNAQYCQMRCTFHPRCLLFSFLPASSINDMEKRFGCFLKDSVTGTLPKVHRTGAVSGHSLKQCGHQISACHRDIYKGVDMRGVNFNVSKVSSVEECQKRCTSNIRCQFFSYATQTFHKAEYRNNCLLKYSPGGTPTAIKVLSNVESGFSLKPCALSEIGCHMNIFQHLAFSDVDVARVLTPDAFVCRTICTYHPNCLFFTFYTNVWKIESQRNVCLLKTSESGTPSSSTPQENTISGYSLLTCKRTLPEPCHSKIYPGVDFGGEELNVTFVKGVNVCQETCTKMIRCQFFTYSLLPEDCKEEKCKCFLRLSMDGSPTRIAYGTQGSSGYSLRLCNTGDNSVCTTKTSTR

Row | Structure (SMILES) | Ki [2] [µM] | Ki [3] [µM] | also measured
1 | CC(C)(C)OC(=O)N1CCN2c3cccc(c3)[C@@H](NC(=O)OCc3ccccc3)C/C=C/CCNC(=O)[C@@H]2C1 |  |  | ring closure, isolated yield ([1]; from C=CCCNC(=O)[C@@H]1CN(C(=O)OC(C)(C)C)CCN1c1cccc([C@H](CC=C)NC(=O)OCc2ccccc2)c1, 13-membered ring, Grubbs II (40 mol%), 7.55 mM, 5.0 h): 93%
2 | CC(C)(C)OC(=O)N1CCN2c3cccc(c3)[C@@H](NC(=O)OCc3ccccc3)C/C=C/CCNC(=O)[C@H]2C1 |  |  | ring closure, isolated yield ([1]; from C=CCCNC(=O)[C@H]1CN(C(=O)OC(C)(C)C)CCN1c1cccc([C@H](CC=C)NC(=O)OCc2ccccc2)c1, 13-membered ring, Grubbs II (20 mol%), 9.78 mM, 5.0 h): 81%
3 | CC(C)(C)OC(=O)N1CCN2c3cccc(c3)[C@@H](NC(=O)OCc3ccccc3)C/C=C/CNC(=O)[C@H]2C1 |  |  | ring closure, isolated yield ([1]; from C=CCNC(=O)[C@H]1CN(C(=O)OC(C)(C)C)CCN1c1cccc([C@H](CC=C)NC(=O)OCc2ccccc2)c1, 12-membered ring, Grubbs II (20 mol%), 9.1 mM, 5.0 h): 38.6%
4 | CC(C)(C)OC(=O)NC[C@H]1Nc2cccc(c2)[C@@H](NC(=O)OCc2ccccc2)C/C=C/CCNC1=O |  |  | ring closure, isolated yield ([1]; from C=CCCNC(=O)[C@@H](CNC(=O)OC(C)(C)C)Nc1cccc([C@H](CC=C)NC(=O)OCc2ccccc2)c1, 13-membered ring, Grubbs II (20 mol%)/pTsOH.H2O (1 eq), 10.2 mM, 5.0 h): 37%
5 | O=C1CN2c3cccc(c3)[C@@H](NC(=O)OCc3ccccc3)CC=CCCNC(=O)C2CN1 (some centres unmarked) |  |  | ring closure, isolated yield ([1]; from C=CCCNC(=O)C1CNC(=O)CN1c1cccc([C@H](CC=C)NC(=O)OCc2ccccc2)c1, 13-membered ring, Grubbs II (20 mol%), 9.0 mM, 2.5 h): 89%
6 | CC(C)(C)OC(=O)N1CC(=O)N2c3cccc(c3)[C@@H](NC(=O)OCc3ccccc3)CC=CCCNC(=O)[C@H]2C1 (mixture of isomers) |  |  | ring closure, isolated yield ([1]; from C=CCCNC(=O)[C@H]1CN(C(=O)OC(C)(C)C)CC(=O)N1c1cccc([C@H](CC=C)NC(=O)OCc2ccccc2)c1, 13-membered ring, Grubbs II (30 mol%), 9.54 mM, 2.0 h): 76%
7 | O=C1NCCCCC[C@H](n2cnc(-c3cc(Cl)ccc3-n3cc(C(F)(F)F)nn3)cc2=O)c2cccc(c2)N2C(=O)CC[C@H]12 [Example 33, (6R,14S)-14-(4-{5-chloro-2-[4-(trifluoromethyl)-1H-1,2,3-triazol-1-yl]phenyl}-6-oxo-1,6-dihydropyrimidin-1-yl)-2,8-diazatricyclo[13.3.1.0^2,6]nonadeca-1(19),15,17-triene-3,7-dione] | 0.012 | 0.319 | 
8 | O=C1NCCCCC[C@H](n2cnc(-c3c(-n4cc(Cl)nn4)ccc(Cl)c3F)cc2=O)c2cccc(c2)N2C(=O)CC[C@H]12 [Example 34, (6R,14S)-14-{4-[3-chloro-6-(4-chloro-1H-1,2,3-triazol-1-yl)-2-fluorophenyl]-6-oxo-1,6-dihydropyrimidin-1-yl}-2,8-diazatricyclo[13.3.1.0^2,6]nonadeca-1(19),15,17-triene-3,7-dione] | 0.006 | 0.134 | 
9 | O=C1NCCCCC[C@H](n2cnc(-c3c(-n4cc(Cl)nn4)ccc(Cl)c3F)cc2=O)c2cccc(c2)N2C(=O)CC[C@@H]12 [Example 35, (6S,14S)-14-{4-[3-chloro-6-(4-chloro-1H-1,2,3-triazol-1-yl)-2-fluorophenyl]-6-oxo-1,6-dihydropyrimidin-1-yl}-2,8-diazatricyclo[13.3.1.0^2,6]nonadeca-1(19),15,17-triene-3,7-dione] | 5.17 | 11.1 | 
10 | O=C1NCCCCC[C@H](n2cnc(-c3cc(Cl)ccc3-n3cc(Cl)nn3)cc2=O)c2cccc(c2)N2CCC[C@H]12 [Example 36, (6R,14S)-14-{4-[5-chloro-2-(4-chloro-1H-1,2,3-triazol-1-yl)phenyl]-6-oxo-1,6-dihydropyrimidin-1-yl}-2,8-diazatricyclo[13.3.1.0^2,6]nonadeca-1(19),15,17-trien-7-one] | 0.008 | 0.133 | 
